Experimental findings from ChEMBL document CHEMBL3091330, “Discovery of 3,4-Dihydropyrimidin-2(1H)-ones As a Novel Class of Potent and Selective A2B Adenosine Receptor Antagonists” (ACS Med Chem Lett, 2013) are described below.

Type in all cases: cell-based
Experiment [1] has as its target T1, Adenosine receptor A2a (Homo sapiens, UniProt P29274). Briefly: Displacement of [3H]ZM241385 from adenosine A2A receptor in human HeLa cells at 10 uM after 30 mins.
Experiment [2] deals with T2, Adenosine receptor A1 (Homo sapiens) (UniProt P30542).
T2 sequence (whole entry): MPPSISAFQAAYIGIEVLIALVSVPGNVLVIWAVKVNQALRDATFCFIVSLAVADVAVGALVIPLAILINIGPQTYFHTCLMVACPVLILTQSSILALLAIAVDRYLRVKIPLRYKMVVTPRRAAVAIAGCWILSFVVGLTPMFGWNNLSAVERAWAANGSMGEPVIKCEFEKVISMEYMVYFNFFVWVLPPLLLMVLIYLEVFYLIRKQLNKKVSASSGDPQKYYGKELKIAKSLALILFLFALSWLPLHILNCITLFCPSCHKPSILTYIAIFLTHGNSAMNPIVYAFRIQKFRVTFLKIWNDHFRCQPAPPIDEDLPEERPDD
The experiment can be described thus: Displacement of [3H]DPCPX from human adenosine A1 receptor expressed in CHO cells at 10 uM after 60 mins.

The next experiment addresses T3, Adenosine receptor A2b (Homo sapiens, UniProt P29275).
T3 sequence (P29275 whole entry): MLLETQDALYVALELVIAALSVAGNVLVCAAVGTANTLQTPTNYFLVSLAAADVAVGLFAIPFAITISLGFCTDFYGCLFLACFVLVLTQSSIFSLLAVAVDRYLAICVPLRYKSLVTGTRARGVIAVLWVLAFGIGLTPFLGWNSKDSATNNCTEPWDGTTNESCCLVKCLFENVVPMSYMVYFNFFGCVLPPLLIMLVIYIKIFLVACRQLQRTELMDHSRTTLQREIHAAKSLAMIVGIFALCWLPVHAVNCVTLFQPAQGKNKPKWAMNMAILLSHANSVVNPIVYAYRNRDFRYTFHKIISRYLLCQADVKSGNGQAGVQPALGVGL
The experiment can be described thus: Displacement of [3H]DPCPX from human adenosine A2B receptor expressed in HEK293 cells after 30 mins by Scatchard plot analysis.

The target in experiment [3] is T4, Adenosine receptor A3 (Homo sapiens) (UniProt P0DMS8).
T4 sequence (whole entry): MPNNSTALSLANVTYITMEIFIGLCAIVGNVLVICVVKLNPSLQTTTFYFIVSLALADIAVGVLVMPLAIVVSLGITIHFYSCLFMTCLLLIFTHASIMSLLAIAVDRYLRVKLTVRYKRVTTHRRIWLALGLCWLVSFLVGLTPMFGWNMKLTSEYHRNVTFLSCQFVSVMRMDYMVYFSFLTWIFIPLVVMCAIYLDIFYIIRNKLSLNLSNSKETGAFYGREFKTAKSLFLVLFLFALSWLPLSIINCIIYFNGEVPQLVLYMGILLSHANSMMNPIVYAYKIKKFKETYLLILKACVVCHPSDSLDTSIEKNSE
The experiment can be described thus: Displacement of [3H]NECA from adenosine A3 receptor in human HeLa cells at 10 uM after 180 mins.

Experiment [4] addresses T5, Adenosine receptor A2b (Homo sapiens) (UniProt P29275).
T5 sequence (whole entry): T3 sequence (P29275 whole entry)
The experiment can be described thus: Displacement of [3H]DPCPX from human from adenosine A2B receptor in HEK293 cells at 10 uM after 30 mins by Scatchard plot analysis.

Experiment [5] has as its target T1, Adenosine receptor A2a. The experiment can be described thus: Displacement of [3H]ZM241385 from adenosine A2A receptor in human HeLa cells after 30 mins.

T1 sequence (P29274 whole entry): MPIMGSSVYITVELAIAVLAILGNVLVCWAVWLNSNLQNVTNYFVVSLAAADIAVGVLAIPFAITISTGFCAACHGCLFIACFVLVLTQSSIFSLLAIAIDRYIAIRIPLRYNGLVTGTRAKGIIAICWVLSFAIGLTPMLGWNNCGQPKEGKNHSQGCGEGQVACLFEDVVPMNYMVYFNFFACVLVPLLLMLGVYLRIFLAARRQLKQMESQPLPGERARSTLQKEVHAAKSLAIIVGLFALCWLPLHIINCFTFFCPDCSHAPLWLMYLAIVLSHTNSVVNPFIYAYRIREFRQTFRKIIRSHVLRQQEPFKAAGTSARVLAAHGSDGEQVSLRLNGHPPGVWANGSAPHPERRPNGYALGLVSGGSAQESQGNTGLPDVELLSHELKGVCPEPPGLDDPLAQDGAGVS

In the case of `CC1=C(C(=O)OC(C)C)C(c2ccoc2)NC(=S)N1` (racemic), the inhibition was 33% on Adenosine receptor A2a [1], 18% in experiment [2] and 23% in experiment [3]. The molecule further came in with a Ki at Adenosine receptor A2b of 0.194 µM.
For `CC1=C(C(=O)OC(C)C)C(c2ccsc2)NC(=O)N1C` (racemic) the same measures were 20%, 33%, 14% and 1.81 µM.
For the molecule `CCOC(=O)C1=C(CC)NC(=O)NC1c1ccco1` (racemic), the inhibition on Adenosine receptor A2a [1] came to 41%; in experiment [2], 29%; in experiment [3], 3%. In addition, the inhibition constant (Ki) on Adenosine receptor A2b worked out at 0.715 µM.
For `CCOC(=O)c1c(-c2ccco2)nc(=O)[nH]c1C`, in that order: 11%, 6%, 15% and 3.43 µM.
Regarding `CC1=C(C(=O)OC(C)(C)C)C(c2ccco2)NC(=O)N1` (racemic), the inhibition on Adenosine receptor A2a [1] was 7%; in experiment [2] it was 4%; in experiment [3] it was 7%; in experiment [4], 44%.
On to `CCOC(=O)C1=C(C)N(C)C(=O)NC1c1ccco1` (racemic), for which the inhibition on Adenosine receptor A2a [1] was determined as 5%; in experiment [2], 17%; in experiment [3] it was 25%. This molecule also had an inhibition constant Ki at Adenosine receptor A2b of 6.54 µM.
For `CCCOC(=O)C1=C(C)NC(=O)NC1c1ccco1` (racemic) the same measures were 55%, 43%, 2% and 0.206 µM.
For `CCOC(=O)C1=C(C)N(C)C(=O)NC1c1ccsc1` (racemic), the inhibition at Adenosine receptor A2a [1] is 24%; in experiment [2] it was 30%; in experiment [3], 3%. Also, at Adenosine receptor A2b, the affinity corresponds to a Ki of 2.97 µM.
As to `CCOC(=O)C1=C(C)N(C)C(=O)NC1c1cccs1` (racemic), the inhibition turned out to be 3% on Adenosine receptor A2a [1], 2% in experiment [2], 6% in experiment [3] and 11% in experiment [4].
Turning to `CC1=C(C(=O)OC(C)C)C(c2ccoc2)NC(=O)N1` (racemic), the inhibition on Adenosine receptor A2a [1] was 26%; in experiment [2], 25%; in experiment [3], 3%. Besides, the affinity on Adenosine receptor A2b corresponds to a Ki of 1.49 µM.
`CC1=C(C(=O)OC(C)C)C(c2ccoc2)NC(=O)N1C` (racemic): the inhibition on Adenosine receptor A2a [1] is 2%; in experiment [2] it was 23%; in experiment [3], 1%; in experiment [4], 35%.
Take `CCOC(=O)C1=C(C)N=C(S)NC1c1cccs1` (racemic): the inhibition at Adenosine receptor A2a [1] came to 23%; in experiment [2], 2%; in experiment [3], 4%. In addition, on Adenosine receptor A2b, the inhibition constant Ki is 6.25 µM.
On to `CCOC(=O)C1=C(C)NC(=O)NC1c1ccoc1` (racemic), for which the values for the inhibition (at Adenosine receptor A2a [1]; in experiment [2]; in experiment [3]) were 24%, 21% and 1%, respectively. This molecule registered a Ki on Adenosine receptor A2b of 0.0396 µM.
Consider `CCOC(=O)C1=C(C)N(C)C(=O)NC1c1ccoc1` (racemic), for which the inhibition on Adenosine receptor A2a [1] was determined as 24%; in experiment [2] it was 17%; in experiment [3], 1%. On Adenosine receptor A2b, this molecule came in with an inhibitory constant (Ki) of 4.26 µM.
Regarding `CCCC1=C(C(=O)OCC)C(c2ccco2)NC(=O)N1` (racemic), the values for the Ki on Adenosine receptor A2a [5] and at Adenosine receptor A2b were 0.602 µM and 0.256 µM, respectively. Moreover, the inhibition in experiment [2] was found to be 50%; in experiment [3] it was 19%.
As for `CC1=C(C(=O)OC(C)C)C(c2ccco2)NC(=O)N1` (racemic), the inhibition at Adenosine receptor A2a [1] came to 23%; in experiment [2] it was 18%; in experiment [3], 4%. The molecule further registered an inhibitory constant (Ki) at Adenosine receptor A2b of 0.0408 µM.
Regarding `CC1=C(C(N)=O)C(c2ccco2)NC(=O)N1` (racemic), the inhibition came to 1% on Adenosine receptor A2a [1], 2% in experiment [2], 2% in experiment [3] and 2% in experiment [4].
In the case of `CC1=C(C(=O)OC(C)C)C(c2cccs2)NC(=O)N1C` (racemic), the inhibition was 24% on Adenosine receptor A2a [1], 22% in experiment [2], 18% in experiment [3] and 28% in experiment [4].
For `CCOC(=O)C1=C(C)N=C(S)NC1c1ccsc1` (racemic), the values for the inhibition (at Adenosine receptor A2a [1]; in experiment [2]; in experiment [3]) were 28%, 23% and 2%, respectively. On Adenosine receptor A2b, this molecule came in with an inhibition constant Ki of 1.1 µM.
In the case of `CC1=C(C(=O)OC(C)C)C(c2ccsc2)NC(=S)N1` (racemic), the inhibition came to 20% on Adenosine receptor A2a [1], 16% in experiment [2] and 3% in experiment [3]. This molecule also gave an inhibition constant (Ki) at Adenosine receptor A2b of 0.416 µM.
Consider `CC1=C(C(=O)OC(C)C)C(c2cccs2)NC(S)=N1` (racemic), for which the values for the inhibition (at Adenosine receptor A2a [1]; in experiment [2]; in experiment [3]) were 15%, 23% and 20%, respectively. Further, on Adenosine receptor A2b, the inhibitory constant (Ki) was 1.57 µM.
In the case of `CCOC(=O)C1=C(C(F)(F)F)NC(=O)NC1c1ccco1` (racemic), the inhibition at Adenosine receptor A2a [1] was 32%; in experiment [2] it was 15%; in experiment [3] it was 2%; in experiment [4], 2%.
As for `CC(=O)C1=C(C)NC(=O)NC1c1ccco1` (racemic), the inhibition at Adenosine receptor A2a [1] is 21%; in experiment [2] it was 30%; in experiment [3], 14%; in experiment [4], 38%.
Regarding `CCOC(=O)C1=C(C)NC(=S)NC1c1ccoc1` (racemic), the inhibition on Adenosine receptor A2a [1] is 25%; in experiment [2] it was 18%; in experiment [3] it was 15%. The molecule also returned an inhibitory constant (Ki) on Adenosine receptor A2b of 0.0431 µM.
In the case of `COC(=O)C1=C(C)NC(=O)NC1c1ccco1` (racemic), the inhibition at Adenosine receptor A2a [1] was 25%; in experiment [2], 34%; in experiment [3] it was 13%. Also, at Adenosine receptor A2b, the inhibition constant (Ki) was determined as 2.16 µM.
As for `CC1=C(C(=O)OC(C)C)C(c2ccsc2)NC(=O)N1` (racemic), the inhibition was determined as 25% at Adenosine receptor A2a [1], 26% in experiment [2] and 5% in experiment [3]. The molecule also displayed a Ki on Adenosine receptor A2b of 0.0566 µM.
In the case of `CC1=C(C(=O)OC(C)C)C(c2ccco2)NC(=O)N1C` (racemic), the figures for the inhibition (at Adenosine receptor A2a [1]; in experiment [2]; in experiment [3]) were 31%, 28% and 18%, respectively. In addition, on Adenosine receptor A2b, the affinity corresponds to a Ki of 1.15 µM.
Consider `CCOC(=O)C1=C(C)NC(=O)NC1c1cccs1` (racemic), for which the inhibition at Adenosine receptor A2a [1] turned out to be 33%; in experiment [2], 3%; in experiment [3], 2%; in experiment [4], 39%.
Regarding `CC1=C(C(=O)OC(C)C)C(c2cccs2)NC(=O)N1` (racemic), the inhibition at Adenosine receptor A2a [1] came to 19%; in experiment [2], 37%; in experiment [3], 14%; in experiment [4], 44%.
On to `CCOC(=O)C1=C(c2ccccc2)NC(=O)NC1c1ccco1` (racemic), for which the inhibition came out at 17% on Adenosine receptor A2a [1], 3% in experiment [2], 2% in experiment [3] and 28% in experiment [4].
`CCOC(=O)C1=C(C)N=C(S)NC1c1ccco1` (racemic): the inhibition on Adenosine receptor A2a [1] amounted to 32%; in experiment [2], 1%; in experiment [3] it was 5%. This molecule gave a Ki on Adenosine receptor A2b of 0.608 µM.
Turning to `CCOC(=O)C1=C(C)NC(=O)NC1c1ccco1` (racemic), the inhibition on Adenosine receptor A2a [1] was 31%; in experiment [2] it was 15%; in experiment [3], 2%. At Adenosine receptor A2b, this molecule returned an inhibitory constant (Ki) of 0.586 µM.
For the molecule `CC1=C(C(=O)Nc2ccccc2)C(c2ccco2)NC(=O)N1` (racemic), the inhibition was 7% on Adenosine receptor A2a [1], 24% in experiment [2], 5% in experiment [3] and 31% in experiment [4].
Turning to `CCOC(=O)C1=C(C)NC(=O)N(C(C)=O)C1c1ccco1` (racemic), the inhibition at Adenosine receptor A2a [1] worked out at 24%; in experiment [2] it was 19%; in experiment [3] it was 1%. On Adenosine receptor A2b, this molecule came in with an inhibition constant (Ki) of 3.11 µM.
